Among the test systems are UACC-62 melanoma; SNB-75 CNS; OVCAR-4 ovarian; NCI/ADR-RES ovarian; HCT-116 colon; SN12C renal; SK-OV-3 ovarian; SW-620 colon; SR leukemia; UACC-257 melanoma; ACHN renal; DU-145 prostate.
Experiment in all cases: inhibition of tumour cell growth, NCI panel, 48 h

Where “and” joins values, the source holds several entries; their conditions need not be identical. Equal values may be shown once.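 Method: 48-hour compound exposure of cells in 96-well plates, five concentrations, linear interpolation of endpoints. The concentration for 50% growth inhibition is given as GI50. At the TGI there is no net growth.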 Where a SMILES comes first, the peptide text is derived from it. The star is where a group is joined. Fmoc = O=C(OCC1c2ccccc2-c2ccccc21)*; OtBu = CC(C)(C)O* Where only a bound is given, the exact number is not on record here.

These results are taken from PubChem BioAssay (NCI).

Take `CC1=NN(c2nc(N)nc(CN3CCOCC3)n2)C(C)(C)C1`: the TGI in the assay with UACC-62 melanoma is above 100 µM; in the assay with SNB-75 CNS, above 100 µM; with OVCAR-4 ovarian, 45.7 µM; in the assay on NCI/ADR-RES ovarian it was above 100 µM; in the assay on HCT-116 colon it was above 100 µM; in the assay with SN12C renal, above 100 µM. Moreover, the TGI in the assay with SK-OV-3 ovarian, with SW-620 colon, in the assay with SR leukemia, in the assay with UACC-257 melanoma, with ACHN renal and with DU-145 prostate was above 100 µM throughout.

In the case of `CN=C1Nc2ccccc2C(=O)N2CSCC12` (stereo unspecified), the TGI in the assay on UACC-62 melanoma, in the assay on SNB-75 CNS, in the assay with OVCAR-4 ovarian, in the assay with NCI/ADR-RES ovarian, in the assay with HCT-116 colon and with SN12C renal was above 100 µM in each case. In addition, the TGI in the assay with SK-OV-3 ovarian, in the assay with SW-620 colon, in the assay with SR leukemia, with UACC-257 melanoma, in the assay on ACHN renal and in the assay with DU-145 prostate was above 100 µM each time.

`CC1OC(OC2C(OC(=O)[C@]34CCC(C)(C)C[C@H]3C3=CC[C@@H]5[C@@]6(C)CC[C@H](OC7OC(C(=O)O)C(O)C(O)C7O)C(C)(C)[C@@H]6CC[C@@]5(C)[C@]3(C)C[C@H]4O)OCC(O)C2O)C(O)C(O)C1OC1OCC(O)C(O)C1O` (stereo partly specified): the TGI is 32.7 µM and 30.1 µM in the assay on UACC-62 melanoma; 29.9 µM and 31.3 µM in the assay with SNB-75 CNS; 31.7 µM in the assay on OVCAR-4 ovarian; 27.1 µM and 19 µM in the assay with NCI/ADR-RES ovarian; 28.1 µM and 22.1 µM in the assay with HCT-116 colon; 16 µM and 6.05 µM in the assay on SN12C renal. Besides, the TGI in the assay on SK-OV-3 ovarian was 33.1 µM and 32 µM; in the assay on SW-620 colon, 32.8 µM and 27.7 µM; in the assay with SR leukemia, 23 µM and > 100 µM; in the assay with UACC-257 melanoma, 32.6 µM and 34.1 µM; in the assay with ACHN renal it was 21.5 µM; in the assay with DU-145 prostate, 28.9 µM and 27.4 µM. Further, the GI50 with NCI/ADR-RES ovarian was 13 µM and 5.11 µM.

For `N#CC12C(=O)NC(=O)C1(C#N)C1C=CC2CC1` (stereo unspecified), the TGI with UACC-62 melanoma, in the assay with SNB-75 CNS, in the assay on OVCAR-4 ovarian, with NCI/ADR-RES ovarian, in the assay on HCT-116 colon and in the assay with SN12C renal was above 100 µM in each case. The TGI with SK-OV-3 ovarian, in the assay with SW-620 colon, in the assay on SR leukemia, in the assay on UACC-257 melanoma, in the assay on ACHN renal and in the assay with DU-145 prostate was above 100 µM in each case.

Turning to `CCn1cc2c(=O)n3ncn(-c4ccc(Br)cc4)c3nc2n1`, the TGI in the assay with UACC-62 melanoma is above 100 µM; in the assay with SNB-75 CNS, 45.8 µM; with OVCAR-4 ovarian, above 100 µM; in the assay on NCI/ADR-RES ovarian, above 100 µM; in the assay on HCT-116 colon it was above 100 µM; in the assay with SN12C renal, above 100 µM. For the same molecule, the TGI in the assay on SK-OV-3 ovarian, with SW-620 colon, with SR leukemia, in the assay on UACC-257 melanoma, with ACHN renal and in the assay on DU-145 prostate was above 100 µM each time.

For `CC(C)C(NC(=O)OCC1c2ccccc2-c2ccccc21)C(=O)NC(CCC(=O)OC(C)(C)C)C(=O)OC(C)(C)C` (stereo unspecified) (Fmoc-Val-Glu(OtBu)-OtBu; configuration not given here), the TGI was above 100 µM in the assay on UACC-62 melanoma; above 100 µM in the assay on SNB-75 CNS; above 100 µM with OVCAR-4 ovarian; above 100 µM in the assay on NCI/ADR-RES ovarian; above 100 µM with HCT-116 colon; above 31.6 µM with SN12C renal. Besides, the TGI with SK-OV-3 ovarian, with SW-620 colon, in the assay with SR leukemia, with UACC-257 melanoma, with ACHN renal and with DU-145 prostate was above 100 µM in each case.

Regarding `O=c1ccc2ccc(OP(=O)(O)O)cc2o1`, the TGI in the assay on UACC-62 melanoma, with SNB-75 CNS, with OVCAR-4 ovarian, with NCI/ADR-RES ovarian, in the assay on HCT-116 colon and in the assay on SN12C renal was above 100 µM throughout. Moreover, the TGI in the assay with SK-OV-3 ovarian, with SW-620 colon, with SR leukemia, in the assay with UACC-257 melanoma, in the assay with ACHN renal and in the assay on DU-145 prostate was above 100 µM in each case.

For `CCOC(=O)C1(C#N)OC(=O)c2cnccc21` (stereo unspecified), the TGI in the assay on UACC-62 melanoma, in the assay with SNB-75 CNS, in the assay on OVCAR-4 ovarian, in the assay with NCI/ADR-RES ovarian, in the assay on HCT-116 colon and with SN12C renal was above 100 µM throughout. Also, the TGI in the assay on SK-OV-3 ovarian, with SW-620 colon, in the assay with SR leukemia, in the assay on UACC-257 melanoma, in the assay with ACHN renal and in the assay with DU-145 prostate was above 100 µM each time.

Regarding `CC(C)CC(NC(=O)C(C)(CI)Cc1ccccc1)C(=O)Nc1ccccc1` (stereo unspecified), the TGI in the assay with UACC-62 melanoma, in the assay with SNB-75 CNS, with OVCAR-4 ovarian, with NCI/ADR-RES ovarian, in the assay on HCT-116 colon and in the assay with SN12C renal was above 100 µM each time. The TGI with SK-OV-3 ovarian, with SW-620 colon, in the assay on SR leukemia, in the assay on UACC-257 melanoma, in the assay with ACHN renal and in the assay on DU-145 prostate was above 100 µM in each case.

Consider `COc1cc(OC)cc(OCc2nc3cc(C(F)(F)F)ccc3nc2-c2ccccc2)c1`, for which the TGI in the assay with UACC-62 melanoma, in the assay with SNB-75 CNS, with OVCAR-4 ovarian, in the assay with NCI/ADR-RES ovarian, in the assay with HCT-116 colon and with SN12C renal was above 100 µM in each case. Besides, the TGI with SK-OV-3 ovarian, with SW-620 colon, with SR leukemia, in the assay on UACC-257 melanoma, in the assay with ACHN renal and in the assay with DU-145 prostate was above 100 µM each time.
